In patent US20130102619A1, “2-PYRIDYLOXY-4-NITRILE OREXIN RECEPTOR ANTAGONISTS” (priority 2011, published 2013) one finds IC50 and Ki data, which are given here for 16 molecules.

Experiment [1] deals with T1, human orexin-2 receptor (Homo sapiens (Human), UniProt O43614). Put plainly: FLIPR Ca2+ Flux Assay, CHO cells expressing human orexin-2 receptor. The class given is cell-based. Particulars: 70 pM Ala-6,12 orexin-A agonist, read-out: hOX2R FLIPR IC50. Here is the method: (§1) The utility of the compounds in accordance with the present invention as orexin receptor OX1R and/or OX2R antagonists may be readily determined without undue experimentation by methodology well known in the art, including the “FLIPR Ca^2+ Flux Assay” (Okumura et al., Biochem. Biophys. Res. Comm. 280:976-981, 2001). In a typical experiment the OX1 and OX2 receptor antagonistic activity of the compounds of the present invention was determined in accordance with the following experimental method. For intracellular calcium measurements, Chinese hamster ovary (CHO) cells expressing the rat orexin-1 receptor or the human orexin-2 receptor, are grown in Iscove's modified DMEM containing 2 mM L-glutamine, […], 1% hypoxanthine-thymidine supplement, 100 U/ml penicillin, 100 ug/ml streptomycin and 10% heat-inactivated fetal calf serum (FCS). The cells are seeded at 20,000 cells/well into Becton-Dickinson black 384-well clear bottom sterile plates coated with poly-D-lysine. All reagents were from GIBCO-Invitrogen Corp. The seeded plates are incubated overnight at 37° C. and 5% CO2. Ala-6,12 human orexin-A as the agonist is prepared as a 1 mM stock solution in 1% bovine serum albumin (BSA) and diluted in assay buffer (HBSS containing 20 mM HEPES, 0.1% BSA and 2.5 mM probenecid, pH7.4) for use in the assay at a final concentration of 70 pM. Test compounds are prepared as 10 mM stock solution in DMSO, then diluted in 384-well plates, first in DMSO, then assay buffer. On the day of the assay, cells are washed 3 times with 100 ul assay buffer and then incubated for 60 min (37° C., 5% CO2) in 60 ul assay buffer containing 1 uM Fluo-4AM ester, 0.02% pluronic acid, and 1% BSA. The dye loading solution is then aspirated and cells are washed 3 times with 100 ul assay buffer. 30 ul of that same buffer is left in each well. Within the Fluorescent Imaging Plate Reader (FLIPR, Molecular Devices), test compounds are added to the plate in a volume of 25 ul, incubated for 5 min and finally 25 ul of agonist is added. Fluorescence is measured for each well at 1 second intervals for 5 minutes and the height of each fluorescence peak is compared to the height of the fluorescence peak induced by 70 pM Ala-6,12 orexin-A with buffer in place of antagonist. […] Alternatively, compound potency can be assessed by a radioligand binding assay (described in Bergman et. al. Bioorg. Med. Chem. Lett. 2008, 18, 1425-1430) in which the inhibition constant (Ki) is determined in membranes prepared from CHO cells expressing either the OX1 or OX2 receptor. The intrinsic orexin receptor antagonist activity of a compound which may be used in the present invention may be determined by these assays.
A general note: Calcium assays in cells follow changes in intracellular calcium, usually with a dye or a luminescent sensor.

The target in the next experiment is OX1 receptor (hOX1) (Homo sapiens, UniProt O43613). The experiment can be described thus: radioligand binding assay, orexin-1 receptor (membranes from CHO cells). Particulars: CHO cell membranes, read-out: hOX1 hKi. Here is the method: In a typical experiment the OX1 and OX2 receptor antagonistic activity of the compounds of the present invention was determined in accordance with the following experimental method. For intracellular calcium measurements, Chinese hamster ovary (CHO) cells expressing the rat orexin-1 receptor or the human orexin-2 receptor, are grown in Iscove's modified DMEM containing 2 mM L-glutamine, […], 1% hypoxanthine-thymidine supplement, 100 U/ml penicillin, 100 ug/ml streptomycin and 10% heat-inactivated fetal calf serum (FCS). The cells are seeded at 20,000 cells/well into Becton-Dickinson black 384-well clear bottom sterile plates coated with poly-D-lysine. All reagents were from GIBCO-Invitrogen Corp. The seeded plates are incubated overnight at 37° C. and 5% CO2. Ala-6,12 human orexin-A as the agonist is prepared as a 1 mM stock solution in 1% bovine serum albumin (BSA) and diluted in assay buffer (HBSS containing 20 mM HEPES, 0.1% BSA and 2.5 mM probenecid, pH7.4) for use in the assay at a final concentration of 70 pM. Test compounds are prepared as 10 mM stock solution in DMSO, then diluted in 384-well plates, first in DMSO, then assay buffer. On the day of the assay, cells are washed 3 times with 100 ul assay buffer and then incubated for 60 min (37° C., 5% CO2) in 60 ul assay buffer containing 1 uM Fluo-4AM ester, 0.02% pluronic acid, and 1% BSA. The dye loading solution is then aspirated and cells are washed 3 times with 100 ul assay buffer. 30 ul of that same buffer is left in each well. Within the Fluorescent Imaging Plate Reader (FLIPR, Molecular Devices), test compounds are added to the plate in a volume of 25 ul, incubated for 5 min and finally 25 ul of agonist is added. Fluorescence is measured for each well at 1 second intervals for 5 minutes and the height of each fluorescence peak is compared to the height of the fluorescence peak induced by 70 pM Ala-6,12 orexin-A with buffer in place of antagonist. […] Alternatively, compound potency can be assessed by a radioligand binding assay (described in Bergman et. al. Bioorg. Med. Chem. Lett. 2008, 18, 1425-1430) in which the inhibition constant (Ki) is determined in membranes prepared from CHO cells expressing either the OX1 or OX2 receptor. The intrinsic orexin receptor antagonist activity of a compound which may be used in the present invention may be determined by these assays.

In another experiment the target is rat orexin-1 receptor (Rattus norvegicus (Rat), UniProt P56718). The experiment can be described thus: FLIPR Ca2+ Flux Assay, CHO cells expressing rat orexin-1 receptor.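 Note: concentration giving 50% inhibition of the agonist-induced calcium response.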 The class given is cell-based. Particulars: 70 pM Ala-6,12 orexin-A agonist, read-out: hOX1R FLIPR IC50. How it is done:
as §1

Experiment [2] addresses T1, human orexin-2 receptor. Put plainly: radioligand binding assay, orexin-2 receptor (membranes from CHO cells). Particulars: CHO cell membranes, read-out: hOX2 hKi. How it is done: as §1

Chain of rat orexin-1 receptor (P56718 whole entry): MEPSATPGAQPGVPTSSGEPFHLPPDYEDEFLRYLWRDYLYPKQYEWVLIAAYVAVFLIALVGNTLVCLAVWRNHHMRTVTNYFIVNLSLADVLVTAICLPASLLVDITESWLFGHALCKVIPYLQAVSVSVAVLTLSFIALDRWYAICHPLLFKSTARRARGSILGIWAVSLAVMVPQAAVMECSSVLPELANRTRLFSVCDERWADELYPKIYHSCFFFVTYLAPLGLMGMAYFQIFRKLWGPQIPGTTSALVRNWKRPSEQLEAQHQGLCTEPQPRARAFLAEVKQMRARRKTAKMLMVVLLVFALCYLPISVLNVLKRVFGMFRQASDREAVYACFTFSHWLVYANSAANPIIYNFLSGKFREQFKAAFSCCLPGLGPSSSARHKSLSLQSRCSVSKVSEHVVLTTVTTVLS
T1 sequence (O43614 whole entry): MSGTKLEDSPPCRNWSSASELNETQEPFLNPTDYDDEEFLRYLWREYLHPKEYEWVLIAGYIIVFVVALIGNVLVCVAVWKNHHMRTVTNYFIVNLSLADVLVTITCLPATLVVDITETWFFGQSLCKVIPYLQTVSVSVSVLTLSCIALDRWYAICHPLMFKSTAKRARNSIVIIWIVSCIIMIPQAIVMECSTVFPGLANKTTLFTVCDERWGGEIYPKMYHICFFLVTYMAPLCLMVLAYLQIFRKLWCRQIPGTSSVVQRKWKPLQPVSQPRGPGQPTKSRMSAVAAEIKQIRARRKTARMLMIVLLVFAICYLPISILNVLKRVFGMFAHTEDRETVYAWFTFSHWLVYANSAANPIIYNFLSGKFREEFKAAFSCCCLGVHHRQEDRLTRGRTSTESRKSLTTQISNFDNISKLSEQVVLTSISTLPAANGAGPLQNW

The IC50 is the concentration at which inhibition is half-maximal. For the molecule `Cc1cccc(-n2nccn2)c1C(=O)N1C[C@H](Oc2cc(C#N)ccn2)CC[C@H]1C` [Example 4, 2-{[(3R,6R)-6-methyl-1-{[2-methyl-6-(2H-1,2,3-triazol-2-yl)phenyl]carbonyl}piperidin-3-yl]oxy}pyridine-4-carbonitrile], the IC50 at human orexin-2 receptor [1] is 29 nM; at rat orexin-1 receptor, greater than 10000 nM. Also, the Ki came to 932 nM at OX1 receptor (hOX1) and 2.3 nM on human orexin-2 receptor [2].
As for `Cc1cccc(C(=O)N2C[C@H](Oc3cc(C#N)ccn3)CC[C@H]2C)c1-n1nccn1` [Example 5, 2-{[(3R,6R)-6-methyl-1-{[3-methyl-2-(2H-1,2,3-triazol-2-yl)phenyl]carbonyl}piperidin-3-yl]oxy}pyridine-4-carbonitrile], the IC50 is 17 nM at human orexin-2 receptor [1] and 2330 nM on rat orexin-1 receptor. The figures for the Ki at OX1 receptor (hOX1) and on human orexin-2 receptor [2] were 669 nM and 3 nM, respectively.
Regarding `C[C@@H]1CC[C@@H](Oc2cc(C#N)ccn2)CN1C(=O)c1nscc1-n1nccn1` [Example 11, 2-{[(3R,6R)-6-methyl-1-{[4-(2H-1,2,3-triazol-2-yl)isothiazol-3-yl]carbonyl}piperidin-3-yl]oxy}pyridine-4-carbonitrile], the Ki stood at 13000 nM at OX1 receptor (hOX1) and 94 nM at human orexin-2 receptor [2].
Regarding `C[C@@H]1CC[C@@H](Oc2cc(C#N)ccn2)CN1C(=O)c1cn(C)nc1-n1nccn1` [Example 12, 2-{[(3R,6R)-6-methyl-1-{[1-methyl-3-(2H-1,2,3-triazol-2-yl)-1H-pyrazol-4-yl]carbonyl}piperidin-3-yl]oxy}pyridine-4-carbonitrile], the figures for the Ki at OX1 receptor (hOX1) and on human orexin-2 receptor [2] were 5640 nM and 151 nM, respectively.
For `Cc1nsc(-n2nccn2)c1C(=O)N1C[C@H](Oc2cc(C#N)ccn2)CC[C@H]1C` [Example 13, 2-{[(3R,6R)-6-methyl-1-{[3-methyl-5-(2H-1,2,3-triazol-2-yl)isothiazol-4-yl]carbonyl}piperidin-3-yl]oxy}pyridin-4-carbonitrile] the same measures were 34500 nM and 137 nM.
For `C[C@@H]1CC[C@@H](Oc2cc(C#N)ccn2)CN1C(=O)c1cc(Cl)ccc1-n1nccn1` [Example 16, 2-{[(3R,6R)-1-{[5-chloro-2-(2H-1,2,3-triazol-2-yl)phenyl]carbonyl}-6-methylpiperidin-3-yl]oxy}pyridine-4-carbonitrile] the same measures were 5640 nM and 57 nM.
For `C[C@@H]1CC[C@@H](Oc2cc(C#N)ccn2)CN1C(=O)c1cc(C(N)=O)ccc1-n1nccn1` [Example 18, 3-({(2R,5R)-5-[(4-cyanopyridin-2-yl)oxy]-2-methylpiperidin-1-yl}carbonyl)-4-(2H-1,2,3-triazol-2-yl)benzamide] the same measures were 1290 nM and 134 nM.
On to `CCOc1ccc(C(=O)N2C[C@H](Oc3cc(C#N)ccn3)CC[C@H]2C)c(-n2nccn2)c1` [Example 21, 2-{[(3R,6R)-1-{[4-ethoxy-2-(2H-1,2,3-triazol-2-yl)phenyl]carbonyl}-6-methylpiperidin-3-yl]oxy}pyridine-4-carbonitrile], for which the Ki on OX1 receptor (hOX1) is 23200 nM; at human orexin-2 receptor [2], 3920 nM.
For `C[C@@H]1CC[C@@H](Oc2cc(C#N)ccn2)CN1C(=O)c1ccc(OCF)cc1-n1nccn1` [Example 23, 2-{[(3R,6R)-1-{[4-(fluoromethoxy)-2-(2H-1,2,3-triazol-2-yl)phenyl]carbonyl}-6-methylpiperidin-3-yl]oxy}pyridine-4-carbonitrile] the same measures were 7840 nM and 35 nM.
For `C[C@@H]1CC[C@@H](Oc2cc(C#N)ccn2)CN1C(=O)c1ccc(OC(F)F)cc1-n1nccn1` [Example 24, 2-{[(3R,6R)-1-{[4-(difluoromethoxy)-2-(2H-1,2,3-triazol-2-yl)phenyl]carbonyl}-6-methylpiperidin-3-yl]oxy}pyridine-4-carbonitrile] the same measures were 23900 nM and 79 nM.
On to `C[C@@H]1CC[C@@H](Oc2cc(C#N)ccn2)CN1C(=O)c1ccc(OCCO)cc1-n1nccn1` [Example 25, 2-{[(3R,6R)-1-{[4-(2-hydroxyethoxy)-2-(2H-1,2,3-triazol-2-yl)phenyl]carbonyl}-6-methylpiperidin-3-yl]oxy}pyridine-4-carbonitrile], for which the Ki worked out at 9440 nM at OX1 receptor (hOX1) and 10900 nM at human orexin-2 receptor [2].
For `Cc1ccc(C(=O)N2C[C@H](Oc3cc(C#N)ccn3)CC[C@H]2C)c(-n2nccn2)n1` [Example 26, 2-{[(3R,6R)-6-methyl-1-{[6-methyl-2-(2H-1,2,3-triazol-2-yl)pyridin-3-yl]carbonyl}piperidin-3-yl]oxy}pyidine-4-carbonitrile] the same measures were 9440 nM and 162 nM.
As for `C[C@@H]1CC[C@@H](Oc2cc(C#N)ccn2)CN1C(=O)c1ccc(C(F)(F)F)nc1-n1nccn1` [Example 27, 2-{[(3R,6R)-6-methyl-1-{[2-(2H-1,2,3-triazol-2-yl)-6-(trifluoromethyl)pyridin-3-yl]carbonyl}piperidin-3-yl]oxy}pyridine-4-carbonitrile], the values for the Ki on OX1 receptor (hOX1) and on human orexin-2 receptor [2] were 9440 nM and 1040 nM, respectively.
Turning to `COc1ccc(C(=O)N2C[C@H](Oc3cc(C#N)ccn3)CC[C@H]2C)c(Cl)n1` [Example 28, 2-({(3R,6R)-1-[(2-chloro-6-methoxypyridin-3-yl)carbonyl]-6-methylpiperidin-3-yl}oxy)pyridine-4-carbonitrile], the Ki is 2820 nM on OX1 receptor (hOX1) and 618 nM on human orexin-2 receptor [2].
As for `C[C@@H]1CC[C@@H](Oc2cc(C#N)ccn2)CN1C(=O)c1ccccc1-n1ncnn1` [Example 30, 2-{[(3R,6R)-6-methyl-1-{[2-(2H-tetrazol-2-yl)phenyl]carbonyl}piperidin-3-yl]oxy}pyridine-4-carbonitrile], the IC50 was 110 nM at human orexin-2 receptor [1] and less than 10000 nM on rat orexin-1 receptor.
In the case of `C[C@@H]1CC[C@@H](Oc2cc(C#N)ccn2)CN1C(=O)c1ccsc1-c1ncccn1` [Example 32, 2-({(3R,6R)-6-methyl-1-[(2-pyrimidin-2-ylthiophen-3-yl)carbonyl]piperidin-3-yl}oxy)pyridine-4-carbonitrile], the half-maximal inhibitory concentration (IC50) stood at 44 nM at human orexin-2 receptor [1] and 6740 nM at rat orexin-1 receptor. Moreover, the Ki at human orexin-2 receptor [2] worked out at 2.1 nM.
